Results published in patent publication US20250332180A1, “CANNABINOIDS AND IL-15 ACTIVATE NK CELLS” (The Regents of the University of California, priority 2022, published 2025).

Columns and labels:
OSCCs [1] = experiment: Cell count of viable cells (Trypan Blue, light microscope); format: cell-based, human; settings: WIN 55,212-2 10-100 μM, 24 hours
From the text: The number of viable cells was counted under light microscope using Trypan Blue staining. Compiled data from three independent experiments performed as shown.
(§1) The number of viable cells was counted under light microscope using Trypan Blue staining (Sigma, MO, USA).

MP2 tumor cells [2] = experiment: as above; format: cell-based, human; settings: different concentrations of WIN 55,212-2, 24-48 hours
From the text: (§2) The number of viable cells was counted under light microscope using Trypan Blue staining. Compiled data from three experiments performed is shown.
as §1

PL-12 tumor cells [3] = experiment: as above; format: cell-based, human; settings: different concentrations of WIN 55,212-2, 24-48 hours
From the text: as §2, §1

OSCCs [4] = experiment: Cell death assay (PI staining, flow cytometry); format: cell-based, human; settings: 24 hours
Description: (§3) No differences between untreated tumor cells and those treated with the DMSO vehicle alone in cell count or the amount of cell death in OSCCs and OSCSCs. […] Proportion of the live cells that had lost forward and side scatter were determined indicating decreased viability of the cells. In addition, the numbers of viable cells were determined after PI staining followed by flow cytometric analysis (FIG. 2A). OSCC tumor cells were treated as in FIG. 2A and the cells were analyzed by flow cytometry to determine the proportion of the live cells that had lost forward and side scatter indicating decreased viability of the cells (FIG. 2B) and the numbers of viable OSCC tumor cells were determined after PI staining followed by flow cytometric analysis (FIG. 2C). […] PI staining was used to determine the cell death by flow cytometry. One of four representative experiment is shown in (FIG. 2D). The compiled data of paired OSCCs and OSCSCs at the same concentration of WIN 55,212-2 treatment from four experiments is shown in (FIG. 2E). Four experiments were compiled and the % cell death of tumor cells by various WIN 55-212,2 concentrations (10, 25, 50 and 100 μM) were compared to the untreated control for both OSCC (FIG. 2F) and OSCSC (FIG. 2G). […] Non-linear regression was used to fit the curve of the % cell death induced by WIN 55-212,2 in various concentrations (10, 25, 50 and 100 μM) for both OSCC and OSCSC. […] The differences were clear within each independent experiment.
(§4) PI staining was used to determine the cell death by flow cytometry. Compiled data from four independent experiments performed is shown.

OSCSCs [5] = experiment: Cell death assay (PI staining, flow cytometry); format: cell-based, human
Description: as §3, §4

PL-12 tumor cells [6] = experiment: Cell death assay (PI staining, flow cytometry); format: cell-based, human; settings: 25-100 μM, 24-48 hours
MP2 tumor cells [7] = experiment: Cell death assay (PI staining, flow cytometry); format: cell-based, human; settings: 25-100 μM, 24-48 hours
Description: PI staining was used to determine the cell death by flow cytometry. One of two representative experiments is shown in (FIG. 4A) and the compiled data of paired MP2 and PL-12 at the same concentration of WIN 55,212-2 treatment is shown in (FIG. 4B). […] Two experiments were compiled and the % cell death of various WIN 55-212,2 concentration (10, 25, 50 and 100 μM) was compared to the untreated control for both PL12 (FIG. 4C) and MP2 (FIG. 4D). […] Non-linear regression was used to fit the curve of the % cell death induced by WIN 55-212,2 in various concentrations (10, 25, 50 and 100 μM) for both PL12 and MP2 (FIG. 4E).
PI staining was used to determine the cell death by flow cytometry. Compiled data from two experiments is shown.

OSCCs [8] = experiment: Microscopy of morphology and viability; format: cell-based, human
Description: (§5) Chemical structure of WIN 55,212-2 (FIG. 7A). […] OSCCs and OSCSCs were treated with CDDP (50 μg/mL) and different concentrations of WIN 55,212-2 for 24 hours before the microscopic images were taken. Scale bar=50 μm (FIG. 7B).

OSCSCs [9] = experiment: Microscopy of morphology and viability; format: cell-based, human; settings: WIN 55,212-2, even at the lowest concentrations, 24 h
Description: as §5

OSCSCs [10] = settings: 24 hours, up to 50 μM
PL-12 tumor cells [11] = settings: 48 h, 25-100 μM
MP2 tumor cells [12] = tested on: MP2 tumor cells
tumors = settings: cited from earlier work

## CS(=O)(=O)O.Cc1c(C(=O)c2cccc3ccccc23)c2cccc3c2n1[C@H](CN1CCOCC1)CO3 [WIN 55,212-2, (R)-(+)-[2,3-Dihydro-5-methyl-3-(4-morpholinylmethyl)pyrrolo[1,2,3-de]-1,4-benzoxazin-6-yl]-1-naphthalenylmethanone mesylate]
OSCCs [1]
  decrease in cell numbers: 10-25%
MP2 tumor cells [2]
  decreased numbers of viable cells: 60-85%
PL-12 tumor cells [3]
  decreased numbers of viable cells: 50-70%
OSCCs [4]; 75 and 100 μM
  cell death (PI staining): up to 10%
OSCCs [4]; different concentrations
  forward scatter/side scatter (size of cells, early apoptosis): significant dose dependent decrease
OSCSCs [5]; 25-100 μM
  amounts of cell death in OSCSCs compared with those induced by CDDP: either similar or higher
OSCSCs [5]; all concentrations tested, 24 hours
  cell death (PI staining) compared with OSCCs: higher cell death
PL-12 tumor cells [6]
  percentages of dead cells (PI staining): up to 20%
MP2 tumor cells [7]
  percentages of dead cells (PI staining): approximately 30%
OSCCs [8]; 50 μM or higher concentrations of WIN 55,212-2, 24 h
  morphology and viability: some of the OSCCs still remained viable but others rounded up and detached and were not viable
OSCCs [8]; low concentrations of WIN 55,212-2, 24 h
  morphology and viability: remained viable
OSCSCs [9]
  morphology and attachment: became detached from the culture plates
OSCSCs [10]
  cell surface expression of CD44: decreased
  cell surface expression of CD54: decreased
  cell surface expression of MHC class I: remained unchanged
  cell surface expression of PD-L1: decreased
PL-12 tumor cells [11]
  cell surface expression of CD44: Decreased cell surface expression
  cell surface expression of CD54: decreased the expression
  cell surface expression of MHC class I: increased on PL-12 tumor cells
  cell surface expression of PD-L1: increased in PL-12
MP2 tumor cells [12]; 48 h, 25-100 μM
  cell surface expression of CD44: Decreased cell surface expression
  cell surface expression of CD54: decreased the expression
  cell surface expression of MHC class I: decreased on MP2 tumor cells
  cell surface expression of PD-L1: decreased in MP2 tumor cells
MP2 tumor cells [12]; after WIN 55,212-2 treatments
  extent of decrease in all surface receptor expressions, MP2 compared with PL-12: significantly greater
tumors; previously reported in several studies
  migration and invasion of tumors: inhibiting
tumors; previously reported
  anti-tumor effect, mechanism: inducing caspase-independent apoptosis
